# Measurements: patent publication US11377444B2, “Pyridopyrimidine compounds acting as mTORC 1/2 dual inhibitors” (MEDSHINE DISCOVERY INC., priority 2017, dated 2022)
# Biological target: T1, mTOR kinase (mTORC1 and mTORC2 kinase complex) (Homo sapiens, UniProt P42345)
# T1 construct: purchased DiscoverX; host or cells: HEK-293
# Experiment: In vitro evaluation of mTOR kinase inhibitory activity (DiscoverX ligand-bead competition binding, qPCR readout)
# Protocol: Experimental Embodiment 1: In Vitro Evaluation of mTOR Kinase Inhibitory Activity This experiment was performed by DiscoverX. All materials and methods were obtained from DiscoverX.
# Kinase activity analysis.
# 1. Labeled mTOR kinase was stably expressed in HEK-293 cells.
# 2. Streptavidin magnetic beads were treated with biotinylated small molecule ligands at room temperature for 30 minutes to produce affinity resin for kinase analysis;
# 3. Ligand beads were blocked with excess biotin and washed with buffer (1% bovine serum albumin, […]) to remove unbound ligand and non-specifically bound ligand;
# 4. The assembly of kinase and ligand and affinity beads, and the binding reaction between the compound and the three were performed in buffer (20% blocking buffer, 0.17x phosphate buffer, 0.05% Tween […]);
# 5. The test compounds were dissolved in dimethyl sulfoxide;
# 6. All test compounds were dissolved in DMSO, and then directly diluted […]
# 7. The solution was placed in a 384-well polypropylene plate, wherein the volume of each well was 0.02 mL;
# 8. The plate was shaked for an hour at room temperature;
# 9. The plate was washed with buffer (1× PBS, 0.05% Tween 20);
# 10. The affinity beads were resuspended in buffer (1× PBS, 0.05% Tween […] non-biotin affinity ligand) and incubated at room temperature for 30 minutes;
# 11. The kinase concentration in the eluate was deteced by qPCR.
row,SMILES,Kd
1,"CNC(=O)c1cccc(-c2ccc3c(N4CCOCC4C)nc(N4CCOC5CC54)nc3n2)c1 (single isomer, unassigned) [Embodiment 18-1]",3 nM
2,"CNC(=O)c1cccc(-c2ccc3c(N4CCOCC4C)nc(N4CCOC5CC54)nc3n2)c1 (single isomer, unassigned) [Embodiment 18-2]",0.5 nM
3,"CNC(=O)c1cccc(-c2ccc3c(N4CCOCC4C)nc(N4CCOC5(CCS(=O)(=O)C5)C4)nc3n2)c1 (single isomer, unassigned) [Embodiment 47-1]",7.9 nM
4,"CNC(=O)c1cccc(-c2ccc3c(N4CCOCC4C)nc(N4CC5(CCOC5)OCC4C)nc3n2)c1 (single isomer, unassigned) [Embodiment 48-1]",1.8 nM
5,"CNC(=O)c1cccc(-c2ccc3c(N4CCOCC4C)nc(N4CCOC5(CNC(=O)C5)C4)nc3n2)c1 (single isomer, unassigned) [Embodiment 53-1]",1.1 nM
6,"CNC(=O)c1cccc(-c2ccc3c(N4CCOCC4C)nc(N4CCOC5(CNC(=O)C5)C4)nc3n2)c1 (single isomer, unassigned) [Embodiment 53-2]",1.8 nM
7,CNC(=O)c1cccc(-c2ccc3c(N4CCOC[C@@H]4C)nc(C4CCC5(CC4)OCCO5)nc3n2)c1 [Embodiment 5],0.66 nM
8,CNC(=O)c1cccc(-c2ccc3c(N4CCOC[C@@H]4C)nc(N4CC5(CCOCC5)C4)nc3n2)c1 [Embodiment 6],12 nM
9,CNC(=O)c1cccc(-c2ccc3c(N4CCOC[C@@H]4C)nc(N4CCC5(CC4)COC5)nc3n2)c1 [Embodiment 7],6.4 nM
10,CNC(=O)c1cccc(-c2ccc3c(N4CCOCC4C)nc(N4CCC5(CCOC5)CC4)nc3n2)c1 (stereo not shown) [Embodiment 8],5.9 nM
11,CNC(=O)c1cccc(-c2ccc3c(N4CCOCC4C)nc(N4CCC5(CC4)CC5)nc3n2)c1 (stereo not shown) [Embodiment 10],7.8 nM
12,Nc1nc2cc(-c3ccc4c(N5C6CCC5COC6)nc(N5CCOC6(CC6)C5)nc4n3)ccc2o1 [Embodiment 11],1.2 nM
13,C[C@H]1COCCN1c1nc(N2CCOC3(CC3)C2)nc2nc(-c3ccc4ccc(N)nc4c3)ccc12 [Embodiment 14],0.25 nM
14,C[C@H]1COCCN1c1nc(N2CCOC3(CC3)C2)nc2nc(-c3ccc4nc(N)ncc4c3)ccc12 [Embodiment 16],1.5 nM
15,C[C@H]1COCCN1c1nc(N2CCOC3(CC3)C2)nc2nc(-c3cccc(-c4ccn[nH]4)c3)ccc12 [Embodiment 17],3.4 nM
16,C[C@H]1COCCN1c1nc(N2CCOC3(CC3)C2)nc2nc(-c3cccc(-c4nc[nH]n4)c3)ccc12 [Embodiment 19],3 nM
17,CNC(=O)c1cccc(-c2ccc3c(N4CCOC[C@@H]4C)nc(N4CCOCC45CC5)nc3n2)c1 [Embodiment 20],0.97 nM
18,C[C@H]1COCCN1c1nc(N2CCOC3(CC3)C2)nc2nc(-c3ccc4cnc(N)nc4c3)ccc12 [Embodiment 25],1.4 nM
19,CNC(=O)c1cccc(-c2ccc3c(N4CCOC[C@@H]4C)nc(N4CCOC5(C4)CC(F)(F)C5)nc3n2)c1 [Embodiment 28],1.4 nM
20,C[C@H]1COCCN1c1nc(N2CCOC3(C2)CC(F)(F)C3)nc2nc(-c3cccc(C(=O)NC4CC4)c3)ccc12 [Embodiment 29],2.7 nM
21,CNC(=O)c1cccc(-c2ccc3c(N4CCOC[C@@H]4C)nc(N4CCCC5(C4)OCCO5)nc3n2)c1 [Embodiment 31],5 nM
22,CNC(=O)c1cccc(-c2ccc3c(N4CCOC[C@@H]4C)nc(N4CCOC5(C4)CS(=O)(=O)C5)nc3n2)c1 [Embodiment 43],12 nM

# The next lines start with the values.
row,Kd,SMILES
1,0.5 nM,"CNC(=O)c1cccc(-c2ccc3c(N4CCOCC4C)nc(N4CCOC5(CCSC5)C4)nc3n2)c1 (single isomer, unassigned) [Embodiment 45-1]"
2,1.7 nM,"CNC(=O)c1cccc(-c2ccc3c(N4CCOCC4C)nc(N4CCOC5(CCSC5)C4)nc3n2)c1 (single isomer, unassigned) [Embodiment 45-2]"
3,1 nM,"CNC(=O)c1cccc(-c2ccc3c(N4CCOCC4C)nc(N4CCOC5(CC[S+]([O-])C5)C4)nc3n2)c1 (single isomer, unassigned) [Embodiment 46-1]"
4,4.9 nM,"CNC(=O)c1cccc(-c2ccc3c(N4CCOCC4C)nc(N4CCOC5(CC[S+]([O-])C5)C4)nc3n2)c1 (single isomer, unassigned) [Embodiment 46-2]"
5,7.9 nM,"CNC(=O)c1cccc(-c2ccc3c(N4CCOCC4C)nc(N4CCOC5(CCS(=O)(=O)C5)C4)nc3n2)c1 (single isomer, unassigned) [Embodiment 47-2]"
6,1.9 nM,"CC1COCCN1c1nc(N2CCOC3(CCOC3)C2)nc2nc(-c3cccc(C(N)=O)c3)ccc12 (single isomer, unassigned) [Embodiment 50-1]"
7,0.15 nM,CNC(=S)c1cccc(-c2ccc3c(N4CCOC[C@@H]4C)nc(N4CCOC5(CC5)C4)nc3n2)c1 [Embodiment 2]
8,0.32 nM,CONC(=O)c1cccc(-c2ccc3c(N4CCOC[C@@H]4C)nc(N4CCOC5(CC5)C4)nc3n2)c1 [Embodiment 3]
9,0.22 nM,C[C@H]1COCCN1c1nc(N2CCOC3(CC3)C2)nc2nc(-c3cccc(C(=O)NO)c3)ccc12 [Embodiment 4]
10,3.3 nM,CNC(=O)c1cccc(-c2ccc3c(N4CCOC[C@@H]4C)nc(N4CCOC5(CNC5)C4)nc3n2)c1 [Embodiment 15]
11,1.5 nM,C[C@H]1COCCN1c1nc(N2CCOC3(CC3)C2)nc2nc(-c3cccc(C(=O)NC(C)(C)C)c3)ccc12 [Embodiment 22]
12,6.6 nM,CNC(=O)c1cccc(-c2ccc3c(N4CCOC[C@@H]4C)nc(N4CCOC5(CN(C)C5)C4)nc3n2)c1 [Embodiment 27]
13,0.78 nM,CNC(=O)c1cccc(-c2ccc3c(N4CCOC[C@@H]4C)nc(N4CCOC5(COC5)C4)nc3n2)c1 [Embodiment 40]
14,0.94 nM,CNC(=O)c1cccc(-c2ccc3c(N4CCOC[C@@H]4C)nc(N4CCOC5(CSC5)C4)nc3n2)c1 [Embodiment 41]
15,0.93 nM,CNC(=O)c1cccc(-c2ccc3c(N4CCOC[C@@H]4C)nc(N4CCOC5(C4)C[S+]([O-])C5)nc3n2)c1 (stereo partly shown) [Embodiment 42]
